Test results as given in patent US11612604B2, “Methods of treating cancer with PLK4 inhibitors” (LUDWIG INSTITUTE FOR CANCER RESEARCH LTD, priority 2017, dated 2023).
pIC50: −log10 of the molar value.

molecular target: T1, PLK4 (Homo sapiens, UniProt O00444); assay: Activity (IC50) of the Table 1 compounds as PLK4 inhibitors; type: biochemical; conditions: Table 1, IC50 class
T1 sequence (O00444 1-970): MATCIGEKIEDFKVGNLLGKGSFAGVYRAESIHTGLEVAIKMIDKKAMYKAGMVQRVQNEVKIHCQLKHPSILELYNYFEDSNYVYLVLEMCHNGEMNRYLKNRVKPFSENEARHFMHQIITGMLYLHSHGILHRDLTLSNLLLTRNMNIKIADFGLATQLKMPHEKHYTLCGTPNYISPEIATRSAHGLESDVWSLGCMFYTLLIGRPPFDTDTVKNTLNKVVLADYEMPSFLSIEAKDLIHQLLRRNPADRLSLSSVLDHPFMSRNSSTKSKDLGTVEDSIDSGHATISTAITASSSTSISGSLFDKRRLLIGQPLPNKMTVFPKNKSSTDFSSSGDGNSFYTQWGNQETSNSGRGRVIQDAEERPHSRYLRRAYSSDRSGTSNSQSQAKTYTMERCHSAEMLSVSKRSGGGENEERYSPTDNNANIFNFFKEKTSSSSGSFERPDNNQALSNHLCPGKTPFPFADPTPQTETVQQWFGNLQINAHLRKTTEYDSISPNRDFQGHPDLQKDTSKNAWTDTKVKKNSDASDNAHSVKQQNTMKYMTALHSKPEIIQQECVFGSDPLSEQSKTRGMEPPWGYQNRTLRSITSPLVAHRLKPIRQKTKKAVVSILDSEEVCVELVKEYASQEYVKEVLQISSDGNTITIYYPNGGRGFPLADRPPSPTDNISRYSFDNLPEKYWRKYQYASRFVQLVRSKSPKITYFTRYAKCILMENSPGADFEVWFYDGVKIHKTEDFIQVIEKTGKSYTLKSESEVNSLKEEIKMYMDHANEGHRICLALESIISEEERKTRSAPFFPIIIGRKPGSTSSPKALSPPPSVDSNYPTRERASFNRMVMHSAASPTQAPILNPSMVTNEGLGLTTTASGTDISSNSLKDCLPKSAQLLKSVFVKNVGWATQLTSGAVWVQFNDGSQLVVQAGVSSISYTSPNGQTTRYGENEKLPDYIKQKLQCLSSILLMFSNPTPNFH

| pIC50 | Compound |
| --- | --- |
| > 7.00 | Cc1cc(Nc2nc(Sc3ccc(NC(=O)C4CC4)cc3)nc(C)c2C)n[nH]1 |
| > 7.00 | Cc1cc(Nc2nc(Sc3ccc(NC(=O)C4CCCC4)cc3)nc3c2C(C)CC3)n[nH]1 (stereo not drawn) |
| > 7.00 | COc1c(Nc2cc(C)[nH]n2)nc(Sc2ccc(NC(=O)C3CC3)cc2)nc1N1CCN(C(C)C)CC1 |
| > 7.00 | COc1c(Nc2cc(C)[nH]n2)nc(Sc2ccc(NC(=O)C3CC3)cc2)nc1N1CCN(C(C)=O)CC1 |
| > 7.00 | CCN1CCN(c2nc(Sc3ccc(NC(=O)C4CC4)cc3)nc(Nc3cc(C)[nH]n3)c2OC)CC1 |
| > 7.00 | COCCN1CCN(c2nc(Sc3ccc(NC(=O)C4CC4)cc3)nc(Nc3cc(C)[nH]n3)c2OC)CC1 |
| > 7.00 | COc1c(Nc2cc(C)[nH]n2)nc(Sc2ccc(NC(=O)C3CC3)cc2)nc1N1CCN(CCN(C)C)CC1 |
| > 7.00 | Cc1cc(Nc2nc(Sc3ccc(NC(=O)C4CC4)cc3)nc(N(C)C(C)C)c2C)n[nH]1 |
| > 7.00 | COc1c(Nc2cc(C)[nH]n2)nc(Sc2ccc(S(=O)(=O)C(C)(C)c3cccc([N+](=O)[O-])c3F)cc2F)nc1N1CCC(CCN)CC1 |
| > 7.00 | COc1c(Nc2cc(C)[nH]n2)nc(Sc2ccc(S(=O)(=O)Cc3c(F)c(F)c(F)c(F)c3F)cc2F)nc1N1CCOCC1 |
| > 7.00 | CNCCC1CCN(c2nc(Sc3ccc(S(=O)(=O)C(C)(C)c4cccc([N+](=O)[O-])c4F)cc3F)nc(Nc3cc(C)[nH]n3)c2OC)CC1 |
| > 7.00 | COc1c(Nc2cc(C)[nH]n2)nc(Sc2ccc(S(=O)(=O)C(C)(C)c3c(F)c(F)c(F)c(F)c3F)cc2F)nc1N1CCOCC1 |
| > 7.00 | COc1c(Nc2cc(C)[nH]n2)nc(Sc2ccc(S(=O)(=O)C(C)(C)C)cc2)nc1N1CCN(CCN(C)C)CC1 |
| > 7.00 | COc1c(Nc2cc(C)[nH]n2)nc(Sc2ccc(S(=O)(=O)C(C)(C)c3cccc([N+](=O)[O-])c3F)cc2F)nc1N1CCC(NC(C)=O)CC1 |
| > 7.00 | COc1c(Nc2cc(C)[nH]n2)nc(Sc2ccc(S(=O)(=O)C(C)(C)c3cccc([N+](=O)[O-])c3F)cc2F)nc1N1CC[C@H](NC(C)=O)C1 |
| > 7.00 | COc1c(Nc2cc(C)[nH]n2)nc(Sc2ccc(S(=O)(=O)C(C)(C)c3cccc([N+](=O)[O-])c3F)cc2F)nc1N1CCN(CC(=O)N(C)C)CC1 |
| > 7.00 | COc1c(Nc2cc(C)[nH]n2)nc(Sc2ccc(S(=O)(=O)C(C)(C)c3cccc([N+](=O)[O-])c3F)cc2F)nc1N1CC[C@H](N(C)C)C1 |
| > 7.00 | COc1c(Nc2cc(C)[nH]n2)nc(Sc2ccc(S(=O)(=O)C(C)(C)c3cccc([N+](=O)[O-])c3F)cc2F)nc1N1CC[C@@H](N(C)C)C1 |
| > 7.00 | COc1c(Nc2cc(C)[nH]n2)nc(Sc2ccc(S(=O)(=O)C(C)(C)c3c(F)c(F)cc(F)c3F)cc2F)nc1N1CCC(NC(C)=O)CC1 |
| > 7.00 | COc1c(Nc2cc(C)[nH]n2)nc(Sc2ccc(S(=O)(=O)C(C)(C)c3c(F)c(F)cc(F)c3F)cc2F)nc1N1CC[C@H](N(C)C)C1 |

| pIC50 | Compound |
| --- | --- |
| > 7.00 | COc1c(Nc2cc(C)[nH]n2)nc(Sc2ccc(S(=O)(=O)C(C)(C)c3c(F)c(F)cc(F)c3F)cc2F)nc1N1CCC(CC(=O)N(C)C)CC1 |
| > 7.00 | COc1c(Nc2cc(C)[nH]n2)nc(Sc2ccc(S(=O)(=O)C(C)(C)c3c(F)c(F)cc(F)c3F)cc2F)nc1N1CC[C@@H](N(C)C)C1 |
| > 7.00 | COc1c(Nc2cc(C)[nH]n2)nc(Sc2ccc(S(=O)(=O)C(C)(C)c3c(F)c(F)c(F)c(F)c3F)cc2F)nc1N1CCC(N(C)C)CC1 |
| > 7.00 | COc1c(Nc2cc(C)[nH]n2)nc(Sc2ccc(S(=O)(=O)C(C)(C)c3c(F)c(F)c(F)c(F)c3F)cc2F)nc1N1CCC(CCN(C)C)CC1 |
| > 7.00 | COc1c(Nc2cc(C)[nH]n2)nc(Sc2ccc(S(=O)(=O)C(C)(C)c3cccc([N+](=O)[O-])c3F)cc2F)nc1N1CCC(O)C1 (stereo not drawn) |
| > 7.00 | COc1c(Nc2cc(C)[nH]n2)nc(Sc2ccc(S(=O)(=O)C(C)(C)c3c(F)c(F)c(F)c(F)c3F)cc2F)nc1N1CCN(CCN(C)C)CC1 |
| > 7.00 | COc1c(Nc2cc(C)[nH]n2)nc(Sc2ccc(S(=O)(=O)C(C)(C)c3c(F)c(F)cc(F)c3F)cc2F)nc1N1CCC(OC(C)=O)CC1 |
| > 7.00 | COc1ccc(CS(=O)(=O)c2ccc(Sc3nc(Nc4cc(C)[nH]n4)c(OC)c(N4CCOCC4)n3)c(F)c2)cc1 |
| > 7.00 | COc1ccc(CS(=O)(=O)c2ccc(Sc3nc(Nc4cc(C)[nH]n4)c(OC)c(N4CCCCC4)n3)c(F)c2)cc1 |
| > 7.00 | COc1c(Nc2cc(C)[nH]n2)nc(Sc2ccc(S(=O)(=O)C(C)(C)c3cccc([N+](=O)[O-])c3F)cc2F)nc1N1CCC(N(C)C(C)=O)CC1 |
| > 7.00 | COc1c(Nc2cc(C)[nH]n2)nc(Sc2ccc(S(=O)(=O)C(C)(C)c3c(F)c(F)cc(F)c3F)cc2F)nc1N1CCC(N(C)C(C)=O)CC1 |
| > 7.00 | COc1ccc(CS(=O)(=O)c2ccc(Sc3nc(Nc4cc(C)[nH]n4)c(OC)c(N4CCOCC4)n3)cc2)cc1 |
| > 7.00 | COc1ccc(CS(=O)(=O)c2ccc(Sc3nc(Nc4cc(C)[nH]n4)c(OC)c(N4CCCCC4)n3)cc2)cc1 |
| > 7.00 | COc1c(Nc2cc(C)[nH]n2)nc(Sc2ccc(S(=O)(=O)C(C)(C)c3c(F)c(F)cc([N+](=O)[O-])c3F)cc2F)nc1N1CCN(CCN(C)C)CC1 |
| > 7.00 | COc1c(Nc2cc[nH]n2)nc(Sc2ccc(S(=O)(=O)Cc3cccc([N+](=O)[O-])c3F)cc2F)nc1N1CCOCC1 |
| > 7.00 | COc1c(Nc2cc[nH]n2)nc(Sc2ccc(S(=O)(=O)Cc3cccc([N+](=O)[O-])c3F)cc2F)nc1N1CCCCC1 |
| > 7.00 | CNC(=O)CC1CCN(c2nc(Sc3ccc(S(=O)(=O)C(C)(C)c4cccc([N+](=O)[O-])c4)cc3F)nc(Nc3cc(C)[nH]n3)c2OC)CC1 |
| > 7.00 | COc1c(Nc2cc(C)[nH]n2)nc(Sc2ccc(S(=O)(=O)C(C)(C)c3cccc([N+](=O)[O-])c3F)cc2F)nc1N1CCC(N)CC1 |
| > 7.00 | COc1c(Nc2cc(C)[nH]n2)nc(Sc2ccc(S(=O)(=O)C(C)(C)c3cccc([N+](=O)[O-])c3F)cc2F)nc1N1CCC(CC(N)=O)CC1 |
| > 7.00 | CNC1CCN(c2nc(Sc3ccc(S(=O)(=O)C(C)(C)c4cccc([N+](=O)[O-])c4F)cc3F)nc(Nc3cc(C)[nH]n3)c2OC)CC1 |

| pIC50 | Compound |
| --- | --- |
| > 7.00 | COc1c(Nc2cc(C)[nH]n2)nc(Sc2ccc(S(=O)(=O)C(C)(C)c3cccnc3)cc2)nc1N1CCN(CCN(C)C)CC1 |
| > 7.00 | COc1c(Nc2cc(C)[nH]n2)nc(Sc2ccc(S(=O)(=O)C(C)(C)c3cccs3)cc2)nc1N1CCN(CCN(C)C)CC1 |
| > 7.00 | COc1c(Nc2cc(C)[nH]n2)nc(Sc2ccc(S(=O)(=O)C(C)(C)C3CC3)cc2)nc1N1CCN(CCN(C)C)CC1 |
| > 7.00 | COc1c(Nc2cc(C)[nH]n2)nc(Sc2ccc(S(=O)(=O)Cc3cccc([N+](=O)[O-])c3F)cc2F)nc1N1CCNCC1 |
| > 7.00 | COc1c(Nc2cc(C)[nH]n2)nc(Sc2ccc(S(=O)(=O)C(C)(C)c3cccc([N+](=O)[O-])c3)cc2F)nc1N1CCC(CCNC(C)C(F)(F)F)CC1 (stereo not drawn) |
| > 7.00 | COc1c(Nc2cc(C)[nH]n2)nc(Sc2ccc(S(=O)(=O)C(C)(C)c3ccccn3)cc2)nc1N1CCN(CCN(C)C)CC1 |
| > 7.00 | COc1c(Nc2cc(C)[nH]n2)nc(Sc2ccc(S(=O)(=O)C(C)(C)c3nccs3)cc2)nc1N1CCN(CCN(C)C)CC1 |
| > 7.00 | COc1c(Nc2cc(C)[nH]n2)nc(Sc2ccc(S(=O)(=O)C(C)(C)c3cnccn3)cc2)nc1N1CCN(CCN(C)C)CC1 |
| > 7.00 | COc1c(Nc2cc(C)[nH]n2)nc(Sc2ccc(S(=O)(=O)C(C)(C)c3ccncn3)cc2)nc1N1CCN(CCN(C)C)CC1 |
| > 7.00 | COc1c(Nc2cc(C)[nH]n2)nc(Sc2ccc(S(=O)(=O)Cc3ccccc3)cc2)nc1N1CCN(Cc2ccncc2)CC1 |
| > 7.00 | COc1c(Nc2cc(C)[nH]n2)nc(Sc2ccc(S(=O)(=O)Cc3cccc(C#N)c3)cc2)nc1N1CCN(CCN(C)C)CC1 |
| > 7.00 | COc1ccccc1CS(=O)(=O)c1ccc(Sc2nc(Nc3cc(C)[nH]n3)c(OC)c(N3CCN(CCN(C)C)CC3)n2)cc1 |
| > 7.00 | COc1c(Nc2cc(C)[nH]n2)nc(Sc2ccc(S(=O)(=O)Cc3cccc(C)c3)cc2)nc1N1CCN(CCN(C)C)CC1 |
| > 7.00 | COc1cccc(CS(=O)(=O)c2ccc(Sc3nc(Nc4cc(C)[nH]n4)c(OC)c(N4CCN(CCN(C)C)CC4)n3)cc2)c1 |
| > 7.00 | CCOc1c(Nc2cc(C)[nH]n2)nc(Sc2ccc(NC(=O)C3CC3)cc2)nc1N1CCC(O)CC1 |
| > 7.00 | COc1c(Nc2cc(C)[nH]n2)nc(Sc2ccc(NC(C)=O)cc2)nc1N1CCC(O)CC1C (stereo not drawn) |
| > 7.00 | COc1c(Nc2cc(C)[nH]n2)nc(Sc2ccc(NC(C)=O)cc2)nc1N1CCN(CCN2CCOCC2)CC1 |
| > 7.00 | CC(=O)Nc1ccc(Sc2nc(Nc3cc(C)[nH]n3)c(C)c(N3CCN(CCN4CCCCC4)CC3)n2)cc1 |
| > 7.00 | CC(=O)Nc1ccc(Sc2nc(Nc3cc(C)[nH]n3)c(C)c(N3CCC(OCCN(C)C)CC3)n2)cc1 |
| > 7.00 | CC(=O)Nc1ccc(Sc2nc(Nc3cc(C)[nH]n3)c(C)c(N3CCOC[C@@H]3C)n2)cc1 |
